Laboratory results as given in ChEMBL document CHEMBL3351303, “Discovery of Imigliptin, a Novel Selective DPP-4 Inhibitor for the Treatment of Type 2 Diabetes” (ACS Med Chem Lett, 2014).

Columns and labels:
Dipeptidyl peptidase 8 = Dipeptidyl peptidase 8 (Homo sapiens, UniProt Q6V1X1); test: Inhibition of human recombinant DPP8 pre-incubated with compound for 15 mins before substrate addition by luminescence assay
Dipeptidyl peptidase 9 = Dipeptidyl peptidase 9 (Homo sapiens, UniProt Q86TI2); test: Inhibition of human recombinant DPP9 pre-incubated with compound for 15 mins before substrate addition by luminescence assay
Dipeptidyl peptidase 9, sequence (Q86TI2 whole entry): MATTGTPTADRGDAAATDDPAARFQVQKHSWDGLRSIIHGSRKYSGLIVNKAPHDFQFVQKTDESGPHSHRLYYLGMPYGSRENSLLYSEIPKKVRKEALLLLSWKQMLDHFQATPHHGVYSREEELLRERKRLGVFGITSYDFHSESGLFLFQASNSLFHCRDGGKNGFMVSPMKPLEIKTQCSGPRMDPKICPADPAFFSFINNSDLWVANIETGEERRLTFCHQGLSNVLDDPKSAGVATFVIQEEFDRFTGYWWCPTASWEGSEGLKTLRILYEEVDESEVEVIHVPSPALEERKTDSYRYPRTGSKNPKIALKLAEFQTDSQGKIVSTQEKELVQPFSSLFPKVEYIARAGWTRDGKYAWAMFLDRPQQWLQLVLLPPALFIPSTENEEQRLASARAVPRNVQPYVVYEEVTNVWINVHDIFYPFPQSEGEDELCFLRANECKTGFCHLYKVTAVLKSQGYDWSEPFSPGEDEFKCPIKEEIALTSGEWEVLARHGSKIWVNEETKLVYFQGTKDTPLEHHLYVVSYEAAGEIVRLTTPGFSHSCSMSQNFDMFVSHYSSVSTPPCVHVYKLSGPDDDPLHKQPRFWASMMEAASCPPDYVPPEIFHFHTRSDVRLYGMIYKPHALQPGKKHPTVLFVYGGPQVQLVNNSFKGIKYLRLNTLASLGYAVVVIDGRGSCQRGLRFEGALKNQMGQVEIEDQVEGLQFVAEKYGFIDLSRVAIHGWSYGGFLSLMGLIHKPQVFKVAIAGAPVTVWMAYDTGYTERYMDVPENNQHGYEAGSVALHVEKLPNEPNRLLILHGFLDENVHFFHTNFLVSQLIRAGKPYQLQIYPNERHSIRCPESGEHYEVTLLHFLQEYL

Dipeptidyl peptidase 8, sequence (Q6V1X1 whole entry): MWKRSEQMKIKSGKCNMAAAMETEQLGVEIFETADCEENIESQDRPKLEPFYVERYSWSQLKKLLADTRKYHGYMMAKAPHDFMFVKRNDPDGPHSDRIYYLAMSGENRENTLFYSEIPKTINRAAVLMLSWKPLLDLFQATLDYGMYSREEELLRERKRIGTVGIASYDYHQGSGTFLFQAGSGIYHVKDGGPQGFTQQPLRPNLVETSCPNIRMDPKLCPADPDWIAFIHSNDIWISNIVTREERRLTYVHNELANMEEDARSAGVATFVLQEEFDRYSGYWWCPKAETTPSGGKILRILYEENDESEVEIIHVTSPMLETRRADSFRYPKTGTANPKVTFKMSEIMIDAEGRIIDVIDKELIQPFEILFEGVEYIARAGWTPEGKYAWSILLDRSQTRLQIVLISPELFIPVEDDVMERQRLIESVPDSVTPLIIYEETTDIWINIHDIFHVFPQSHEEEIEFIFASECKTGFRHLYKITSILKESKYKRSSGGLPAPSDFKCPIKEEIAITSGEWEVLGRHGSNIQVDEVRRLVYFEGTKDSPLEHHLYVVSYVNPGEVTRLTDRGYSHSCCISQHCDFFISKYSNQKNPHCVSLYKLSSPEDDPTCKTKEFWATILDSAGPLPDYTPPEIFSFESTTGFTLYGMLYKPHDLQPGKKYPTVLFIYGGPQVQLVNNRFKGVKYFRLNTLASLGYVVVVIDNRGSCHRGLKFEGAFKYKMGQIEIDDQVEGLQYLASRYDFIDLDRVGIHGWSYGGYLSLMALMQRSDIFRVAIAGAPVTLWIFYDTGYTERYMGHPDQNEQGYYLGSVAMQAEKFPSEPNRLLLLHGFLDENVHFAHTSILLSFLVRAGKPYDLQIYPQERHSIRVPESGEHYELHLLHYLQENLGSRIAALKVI

Row | SMILES | IC50 (Dipeptidyl peptidase 8) | IC50 (Dipeptidyl peptidase 9)
1 | Cn1c(=O)n(Cc2ccccc2C#N)c2c(NC3CCNCC3)ccnc21 | > 100 µM | > 100 µM
2 | Cn1c(=O)n(Cc2ccccc2C#N)c2c(N3CCCNCC3)ccnc21 | > 100 µM | > 100 µM
3 | CC(=O)N[C@@H]1CCCN(c2ccnc3c2n(Cc2ccccc2C#N)c(=O)n3C)C1 | > 100 µM | > 100 µM
